Experimental data published in ChEMBL document CHEMBL1139052, “Synthesis of a novel inhibitor against MRSA and VRE: preparation from zerumbone ring opening material showing histidine-kinase inhibition” (Bioorg Med Chem Lett, 2007).
In brackets after ≈: the same amount, converted by molar mass. Several values for one entry are separate records, joined by “and”; a condition that tells them apart may be missing. Equal values may be shown once.

Assays:
[1] = molecular target: T1, Sensor histidine kinase WalK (Bacillus subtilis (strain 168), UniProt Q45614); assay: Inhibition of Bacillus subtilis histidine kinase YycG
T1 sequence (Q45614 whole entry): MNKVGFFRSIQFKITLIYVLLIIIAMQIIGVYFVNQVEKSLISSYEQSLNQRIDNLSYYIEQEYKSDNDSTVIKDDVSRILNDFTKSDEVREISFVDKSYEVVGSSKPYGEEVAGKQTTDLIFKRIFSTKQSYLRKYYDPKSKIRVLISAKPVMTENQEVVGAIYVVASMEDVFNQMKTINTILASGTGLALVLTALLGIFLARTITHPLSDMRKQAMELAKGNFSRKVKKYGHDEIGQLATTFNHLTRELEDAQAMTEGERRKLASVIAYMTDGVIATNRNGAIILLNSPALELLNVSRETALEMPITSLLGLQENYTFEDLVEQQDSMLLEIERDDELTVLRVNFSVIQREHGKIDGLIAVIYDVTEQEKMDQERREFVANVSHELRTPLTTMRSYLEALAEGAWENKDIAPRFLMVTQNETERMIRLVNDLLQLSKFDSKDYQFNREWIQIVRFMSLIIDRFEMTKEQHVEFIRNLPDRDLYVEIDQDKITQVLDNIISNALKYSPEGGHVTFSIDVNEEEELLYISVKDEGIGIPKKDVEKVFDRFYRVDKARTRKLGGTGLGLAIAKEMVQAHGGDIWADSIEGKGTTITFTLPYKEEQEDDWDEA

Staphylococcus aureus = assay: Antibacterial activity against methicillin-resistant staphylococcus aureus 870307 after 18 hrs by broth microdilution method; format: functional
Enterococcus faecalis = assay: Antibacterial activity against vancomycin-resistant Enterococcus faecalis NCTC-12201 after 18 hrs by broth microdilution method; format: functional

Compound	IC50 [1]	MIC (Staphylococcus aureus) [µg/mL]	MIC (Enterococcus faecalis) [µg/mL]
CCCCCCCCN(CCCCCCCC)C(=O)/C=C/C(C)(C)C/C=C(\C)CC/C=C(\C)Br	> 928 µM	> 100	> 100
C/C(Br)=C\CC/C(C)=C/CC(C)(C)/C=C/C(=O)N1CCCCC1	> 1310 µM	> 100	> 100
COC(=O)[C@H](C)NC(=O)/C=C/C(C)(C)C/C=C(\C)CC/C=C(\C)Br	> 1250 µM	> 100	> 100
C/C(Br)=C\CC/C(C)=C/CC(C)(C)/C=C/C(=O)O	63.4 µM and 63.5 µM	> 100	> 100
C/C(Br)=C\CC/C(C)=C/CC(C)(C)/C=C/CO	> 1660 µM	> 100	> 100
COC(=O)/C=C/C(C)(C)C/C=C(\C)CC/C=C(\C)Br	> 1520 µM	> 100	> 100
CCCCCCCCOC(=O)/C=C/C(C)(C)C/C=C(\C)CC/C=C(\C)Br	> 1170 µM	> 100	> 100
C/C(Br)=C\CC/C(C)=C/CC(C)(C)/C=C/C(=O)N[C@@H](Cc1ccc(O)cc1)C(=O)O	< 523 µM	> 100	> 100
C/C(Br)=C\CC/C(C)=C/CC(C)(C)/C=C/C(=O)N[C@@H](CC(=O)O)C(=O)O	< 581 µM	> 100	> 100
C/C(Br)=C\CC/C(C)=C/CC(C)(C)/C=C/C(=O)N[C@@H](CCC(=O)O)C(=O)O	< 563 µM	> 100	> 100
COC(=O)[C@H](Cc1ccccc1)NC(=O)/C=C/C(C)(C)C/C=C(\C)CC/C=C(\C)Br	> 1050 µM	> 100	> 100
C/C(Br)=C\CC/C(C)=C/CC(C)(C)/C=C/C(=O)N[C@@H](CC(C)C)C(=O)O	> 1170 µM	> 100	> 100
COC(=O)[C@@H]1CCCN1C(=O)/C=C/C(C)(C)C/C=C(\C)CC/C=C(\C)Br	< 586 µM	> 100	> 100
CC[C@H](C)[C@H](NC(=O)/C=C/C(C)(C)C/C=C(\C)CC/C=C(\C)Br)C(=O)O	> 1170 µM	> 100	> 100
C/C(Br)=C\CC/C(C)=C/CC(C)(C)/C=C/C(=O)N1CCC[C@H]1C(=O)O	< 606 µM	> 100	> 100
C/C(Br)=C\CC/C(C)=C/CC(C)(C)/C=C/C(=O)N[C@@H](C)C(=O)O	< 647 µM	> 100	> 100
COC(=O)[C@H](CC(C)C)NC(=O)/C=C/C(C)(C)C/C=C(\C)CC/C=C(\C)Br	> 1130 µM	> 100	> 100
CC[C@H](C)[C@H](NC(=O)/C=C/C(C)(C)C/C=C(\C)CC/C=C(\C)Br)C(=O)OC	> 1130 µM	> 100	> 100
C/C(Br)=C\CC/C(C)=C/CC(C)(C)/C=C/C(=O)NCC(=O)O	< 671 µM	> 100	> 100
COC(=O)[C@H](CC(N)=O)NC(=O)/C=C/C(C)(C)C/C=C(\C)CC/C=C(\C)Br	1130 µM	> 100	> 100
COC(=O)[C@H](CCC(N)=O)NC(=O)/C=C/C(C)(C)C/C=C(\C)CC/C=C(\C)Br	1090 µM	> 100	> 100

Compound	IC50 [1]	MIC (Staphylococcus aureus) [µg/mL]	MIC (Enterococcus faecalis) [µg/mL]
COC(=O)[C@H](CC(=O)O)NC(=O)/C=C/C(C)(C)C/C=C(\C)CC/C=C(\C)Br	> 1130 µM	> 100	> 100
COC(=O)[C@H](CCC(=O)O)NC(=O)/C=C/C(C)(C)C/C=C(\C)CC/C=C(\C)Br	> 1090 µM	> 100	> 100
CSCC[C@H](NC(=O)/C=C/C(C)(C)C/C=C(\C)CC/C=C(\C)Br)C(=O)O	< 560 µM	> 100	> 100
C/C(Br)=C\CC/C(C)=C/CC(C)(C)/C=C/C(=O)N[C@@H](CO)C(=O)O	< 621 µM	> 100	> 100
C/C(Br)=C\CC/C(C)=C/CC(C)(C)/C=C/C(=O)N[C@H](C(=O)O)[C@@H](C)O	> 1200 µM	> 100	> 100
COC(=O)CNC(=O)/C=C/C(C)(C)C/C=C(\C)CC/C=C(\C)Br	> 1290 µM	> 100	> 100
C/C(Br)=C\CC/C(C)=C/CC(C)(C)/C=C/C(=O)N[C@@H](Cc1c[nH]c2ccccc12)C(=O)O	43.9 µM	100 (≈ 199 µM)	50 (≈ 99.7 µM)
C/C(Br)=C\CC/C(C)=C/CC(C)(C)/C=C/C(=O)N[C@@H](Cc1cnc[nH]1)C(=O)O	< 553 µM	> 100	> 100
CCCCN(CCCC)C(=O)/C=C/C(C)(C)C/C=C(\C)CC/C=C(\C)Br	> 1170 µM	> 100	> 100
C/C(Br)=C\CC/C(C)=C/CC(C)(C)/C=C/C(=O)N[C@@H](Cc1ccccc1)C(=O)O	< 541 µM	> 100	> 100
C/C(Br)=C\CC/C(C)=C/CC(C)(C)/C=C/C(=O)N[C@@H](CCC(N)=O)C(=O)O	< 564 µM	> 100	> 100
COC(=O)[C@H](CCSC)NC(=O)/C=C/C(C)(C)C/C=C(\C)CC/C=C(\C)Br	> 1090 µM	> 100	> 100
COC(=O)[C@@H](NC(=O)/C=C/C(C)(C)C/C=C(\C)CC/C=C(\C)Br)C(C)C	> 1170 µM	> 100	> 100
COC(=O)[C@@H](NC(=O)/C=C/C(C)(C)C/C=C(\C)CC/C=C(\C)Br)[C@@H](C)O	> 1160 µM	> 100	> 100
C/C(Br)=C\CC/C(C)=C/CC(C)(C)/C=C/C(=O)N[C@H](C(=O)O)C(C)C	< 603 µM	> 100	> 100
COC(=O)[C@H](Cc1ccc(O)cc1)NC(=O)/C=C/C(C)(C)C/C=C(\C)CC/C=C(\C)Br	> 1020 µM	> 100	> 100
COC(=O)[C@H](Cc1cnc[nH]1)NC(=O)/C=C/C(C)(C)C/C=C(\C)CC/C=C(\C)Br	> 1070 µM	> 100	> 100
COC(=O)[C@H](Cc1c[nH]c2ccccc12)NC(=O)/C=C/C(C)(C)C/C=C(\C)CC/C=C(\C)Br	> 970 µM	> 100	> 100
C/C(Br)=C\CC/C(C)=C/CC(C)(C)/C=C/C(=O)N[C@@H](CC(N)=O)C(=O)O	< 582 µM	> 100	> 100
COC(=O)[C@H](CO)NC(=O)/C=C/C(C)(C)C/C=C(\C)CC/C=C(\C)Br	< 600 µM	> 100	> 100
C/C1=C\CC(C)(C)/C=C/C(=O)/C(C)=C/CC1 [ZERUMBONE]	> 2290 µM	> 100	> 100
